Experimental findings from article PMC8480776, “Selenium Derivatives as Promising Therapy for Chagas Disease: In Vitro and In Vivo Studies” (ACS Infectious Diseases, 2021) are described below.

One experiment relates to Vero cells. The experiment in a line: Cytotoxicity test on Vero cells. The experiment is classed as cell-based. The conditions noted are these: Chlorocebus sabaeus, 48 h + 24 h resazurin, read-out: Toxicity IC50 Vero cell.
Consider `CCOP(=S)(Nc1ccc([Se][Se]c2ccc(NP(=S)(OCC)OCC)cc2)cc1)OCC` [Compound 18], for which the CC50 came out at 182 ± 14.3 µM.

For the molecule `O=P(Nc1ccccc1)(Nc1ccc([Se][Se]c2ccc(NP(=O)(Nc3ccccc3)Oc3ccccc3)cc2)cc1)Oc1ccccc1` (centres unmarked) [Compound 19], the CC50 was below 50 µM.

For the molecule `Cc1ccc(OP(=O)(Nc2ccc([Se][Se]c3ccc(NP(=O)(Oc4ccc(C)cc4)Oc4ccc(C)cc4)cc3)cc2)Oc2ccc(C)cc2)cc1` [Compound 20], the CC50 was below 50 µM.

Take `N#C[Se]c1ccc(NC(=O)c2ccccc2)cc1` [Compound 21]: the CC50 is below 50 µM.

With `N#C[Se]c1ccc(NC(=O)c2ccc(Cl)cc2)cc1` [Compound 22], the CC50 is below 50 µM.

Regarding `COc1ccc(C(=O)Nc2ccc([Se]C#N)cc2)cc1` [Compound 23], the CC50 is below 50 µM.

In the case of `N#C[Se]c1ccc(NC(=O)c2ccc(C#N)cc2)cc1` [Compound 24], the CC50 turned out to be 70.8 ± 5.4 µM.

Consider `Cc1ccc(C(=O)Nc2ccc([Se]C#N)cc2)cc1` [Compound 27], for which the CC50 is below 50 µM.

As for `N#C[Se]c1ccc(NC(=O)c2ccno2)cc1` [Compound 30], the CC50 came to 86 ± 6.7 µM.

Take `N#C[Se]c1ccc(NC(=O)C23CC4CC(CC(C4)C2)C3)cc1` [Compound 31]: the CC50 was below 50 µM.

For `N#C[Se]c1ccc(NC(=O)/C=C/c2ccccc2)cc1` [Compound 32], the CC50 is below 50 µM.

For `CSc1ccc(C(=O)Nc2ccc([Se]C#N)cc2)cc1` [Compound 34], the CC50 came to 72.6 ± 9.9 µM.

Take `COP(=O)(Nc1ccc([Se]C#N)cc1)OC` [Compound 36]: the CC50 was below 50 µM.

On to `N#C[Se]c1ccc(NP(=O)(Oc2ccccc2)Oc2ccccc2)cc1` [Compound 37], for which the CC50 is below 50 µM.

With `CCOP(=O)(Nc1ccc([Se]C#N)cc1)OCC` [Compound 38], the CC50 is below 50 µM.

As for `N#C[Se]c1ccc(NP(=O)(Nc2ccccc2)Oc2ccccc2)cc1` (centres unmarked) [Compound 40], the CC50 is below 50 µM.

Turning to `Cc1ccc(OP(=O)(Nc2ccc([Se]C#N)cc2)Oc2ccc(C)cc2)cc1` [Compound 41], the CC50 is below 50 µM.

The test system of a further experiment is T. cruzi epimastigotes, Tulahuen strain. The experiment in a line: Screening against extracellular epimastigotes, Tulahuen strain. Type of experiment: cell-based, Trypanosoma cruzi. The conditions noted are these: IC50 Vero cells/IC50 epimastigotes.
Turning to `N#C[Se]c1ccc(NC(=O)c2ccc(C#N)cc2)cc1` [Compound 24], the “Selectivity index (SI), epimastigotes, Tulahuen strain” value (“Selectivity index … Tulahuen strain” for short) is 5.

For `N#C[Se]c1ccc(NC(=O)c2ccno2)cc1` [Compound 30], the “Selectivity index … Tulahuen strain” value was 6.

With `CSc1ccc(C(=O)Nc2ccc([Se]C#N)cc2)cc1` [Compound 34], the “Selectivity index … Tulahuen strain” value stood at 2.

The experiment is the same for the next values; noted with them: Trypanosoma cruzi, TULAHUEN; 48 h + 24 h resazurin; read-out: Activity IC50, epimastigote form, Tulahuen strain.
For `CCOP(=S)(Nc1ccc([Se][Se]c2ccc(NP(=S)(OCC)OCC)cc2)cc1)OCC` [Compound 18], the half-maximal inhibitory concentration (IC50) is above 50 µM.

For the molecule `O=P(Nc1ccccc1)(Nc1ccc([Se][Se]c2ccc(NP(=O)(Nc3ccccc3)Oc3ccccc3)cc2)cc1)Oc1ccccc1` (centres unmarked) [Compound 19], the IC50 is above 50 µM.

For `Cc1ccc(OP(=O)(Nc2ccc([Se][Se]c3ccc(NP(=O)(Oc4ccc(C)cc4)Oc4ccc(C)cc4)cc3)cc2)Oc2ccc(C)cc2)cc1` [Compound 20], the IC50 is above 50 µM.

As for `N#C[Se]c1ccc(NC(=O)c2ccccc2)cc1` [Compound 21], the IC50 was above 50 µM.

For `N#C[Se]c1ccc(NC(=O)c2ccc(Cl)cc2)cc1` [Compound 22], the IC50 was found to be 19.4 ± 1.4 µM.

`COc1ccc(C(=O)Nc2ccc([Se]C#N)cc2)cc1` [Compound 23]: the IC50 amounted to 17.6 ± 2.5 µM.

For `N#C[Se]c1ccc(NC(=O)c2ccc(C#N)cc2)cc1` [Compound 24], the IC50 came to 15.4 ± 2.1 µM.

In the case of `Cc1ccc(C(=O)Nc2ccc([Se]C#N)cc2)cc1` [Compound 27], the IC50 stood at 4.9 ± 0.3 µM.

For the molecule `N#C[Se]c1ccc(NC(=O)c2ccno2)cc1` [Compound 30], the IC50 worked out at 15.3 ± 1.1 µM.

As for `N#C[Se]c1ccc(NC(=O)C23CC4CC(CC(C4)C2)C3)cc1` [Compound 31], the half-inhibitory concentration (IC50) was determined as 8.1 ± 0.9 µM.

For the molecule `N#C[Se]c1ccc(NC(=O)/C=C/c2ccccc2)cc1` [Compound 32], the IC50 was 7.9 ± 0.5 µM.

For `CSc1ccc(C(=O)Nc2ccc([Se]C#N)cc2)cc1` [Compound 34], the half-inhibitory concentration (IC50) was determined as 29.1 ± 3.1 µM.

As for `COP(=O)(Nc1ccc([Se]C#N)cc1)OC` [Compound 36], the IC50 was 18.4 ± 1.4 µM.

On to `N#C[Se]c1ccc(NP(=O)(Oc2ccccc2)Oc2ccccc2)cc1` [Compound 37], for which the 50% inhibitory concentration (IC50) turned out to be 22.3 ± 3 µM.

For `CCOP(=O)(Nc1ccc([Se]C#N)cc1)OCC` [Compound 38], the 50% inhibitory concentration (IC50) is above 50 µM.

`N#C[Se]c1ccc(NP(=O)(Nc2ccccc2)Oc2ccccc2)cc1` (centres unmarked) [Compound 40]: the half-inhibitory concentration (IC50) is above 50 µM.

Take `Cc1ccc(OP(=O)(Nc2ccc([Se]C#N)cc2)Oc2ccc(C)cc2)cc1` [Compound 41]: the IC50 stood at 29.9 ± 2.1 µM.

Another experiment concerns T. cruzi epimastigotes, Arequipa strain. In words: Screening against extracellular epimastigotes, Arequipa strain. The experiment is classed as cell-based, Trypanosoma cruzi. Conditions: IC50 Vero cells/IC50 epimastigotes.
For `N#C[Se]c1ccc(NC(=O)c2ccc(C#N)cc2)cc1` [Compound 24], the “Selectivity index (SI), epimastigotes, Arequipa strain” value (from here on “Selectivity index … Arequipa strain”) is on record as 2.

As to `N#C[Se]c1ccc(NC(=O)c2ccno2)cc1` [Compound 30], the “Selectivity index … Arequipa strain” value was 9.

With `CSc1ccc(C(=O)Nc2ccc([Se]C#N)cc2)cc1` [Compound 34], the “Selectivity index … Arequipa strain” value is reported as 4.

The experiment is the same for the next values; noted with them: Trypanosoma cruzi; 48 h + 24 h resazurin; read-out: Activity IC50, epimastigote form, Arequipa strain.
Consider `CCOP(=S)(Nc1ccc([Se][Se]c2ccc(NP(=S)(OCC)OCC)cc2)cc1)OCC` [Compound 18], for which the concentration for half-maximal inhibition (IC50) is above 50 µM.

Regarding `O=P(Nc1ccccc1)(Nc1ccc([Se][Se]c2ccc(NP(=O)(Nc3ccccc3)Oc3ccccc3)cc2)cc1)Oc1ccccc1` (centres unmarked) [Compound 19], the half-maximal inhibitory concentration (IC50) was above 50 µM.

Take `Cc1ccc(OP(=O)(Nc2ccc([Se][Se]c3ccc(NP(=O)(Oc4ccc(C)cc4)Oc4ccc(C)cc4)cc3)cc2)Oc2ccc(C)cc2)cc1` [Compound 20]: the half-maximal inhibitory concentration (IC50) was above 50 µM.

Consider `N#C[Se]c1ccc(NC(=O)c2ccccc2)cc1` [Compound 21], for which the IC50 was above 50 µM.

For the molecule `N#C[Se]c1ccc(NC(=O)c2ccc(Cl)cc2)cc1` [Compound 22], the 50% inhibitory concentration (IC50) came to 36.2 ± 2.8 µM.

With `COc1ccc(C(=O)Nc2ccc([Se]C#N)cc2)cc1` [Compound 23], the IC50 was determined as 34.5 ± 2.7 µM.

Take `N#C[Se]c1ccc(NC(=O)c2ccc(C#N)cc2)cc1` [Compound 24]: the IC50 was determined as 30.5 ± 1.9 µM.

Consider `Cc1ccc(C(=O)Nc2ccc([Se]C#N)cc2)cc1` [Compound 27], for which the 50% inhibitory concentration (IC50) was determined as 4.5 ± 0.7 µM.

For the molecule `N#C[Se]c1ccc(NC(=O)c2ccno2)cc1` [Compound 30], the IC50 was 9.8 ± 1 µM.

As for `N#C[Se]c1ccc(NC(=O)C23CC4CC(CC(C4)C2)C3)cc1` [Compound 31], the half-maximal inhibitory concentration (IC50) stood at 4.6 ± 0.5 µM.

With `N#C[Se]c1ccc(NC(=O)/C=C/c2ccccc2)cc1` [Compound 32], the IC50 was 7.4 ± 0.9 µM.

`CSc1ccc(C(=O)Nc2ccc([Se]C#N)cc2)cc1` [Compound 34]: the IC50 amounted to 16.4 ± 2 µM.

Take `COP(=O)(Nc1ccc([Se]C#N)cc1)OC` [Compound 36]: the half-maximal inhibitory concentration (IC50) was determined as 28.1 ± 3.2 µM.

Consider `N#C[Se]c1ccc(NP(=O)(Oc2ccccc2)Oc2ccccc2)cc1` [Compound 37], for which the IC50 stood at 20.1 ± 2.8 µM.

As to `CCOP(=O)(Nc1ccc([Se]C#N)cc1)OCC` [Compound 38], the concentration for half-maximal inhibition (IC50) was above 50 µM.

`N#C[Se]c1ccc(NP(=O)(Nc2ccccc2)Oc2ccccc2)cc1` (centres unmarked) [Compound 40]: the IC50 amounted to 41.1 ± 4.4 µM.

On to `Cc1ccc(OP(=O)(Nc2ccc([Se]C#N)cc2)Oc2ccc(C)cc2)cc1` [Compound 41], for which the concentration for half-maximal inhibition (IC50) is above 50 µM.

The next experiment relates to T. cruzi epimastigotes, SN3 strain. The experiment in a line: Screening against extracellular epimastigotes, SN3 strain. Type of experiment: cell-based, Trypanosoma cruzi. The conditions noted are these: IC50 Vero cells/IC50 epimastigotes.
In the case of `N#C[Se]c1ccc(NC(=O)c2ccc(C#N)cc2)cc1` [Compound 24], the “Selectivity index (SI), epimastigotes, SN3 strain” value (from here on “Selectivity index … SN3 strain”) came to 7.

For `N#C[Se]c1ccc(NC(=O)c2ccno2)cc1` [Compound 30], the “Selectivity index … SN3 strain” value came out at 4.

As for `CSc1ccc(C(=O)Nc2ccc([Se]C#N)cc2)cc1` [Compound 34], the “Selectivity index … SN3 strain” value was determined as 3.

The experiment is the same for the next values; noted with them: Trypanosoma cruzi; 48 h + 24 h resazurin; read-out: Activity IC50, epimastigote form, SN3 strain.
Regarding `CCOP(=S)(Nc1ccc([Se][Se]c2ccc(NP(=S)(OCC)OCC)cc2)cc1)OCC` [Compound 18], the IC50 was above 50 µM.

In the case of `O=P(Nc1ccccc1)(Nc1ccc([Se][Se]c2ccc(NP(=O)(Nc3ccccc3)Oc3ccccc3)cc2)cc1)Oc1ccccc1` (centres unmarked) [Compound 19], the IC50 was above 50 µM.

As to `Cc1ccc(OP(=O)(Nc2ccc([Se][Se]c3ccc(NP(=O)(Oc4ccc(C)cc4)Oc4ccc(C)cc4)cc3)cc2)Oc2ccc(C)cc2)cc1` [Compound 20], the IC50 was above 50 µM.

Regarding `N#C[Se]c1ccc(NC(=O)c2ccccc2)cc1` [Compound 21], the IC50 is 37.1 ± 4.6 µM.

For the molecule `N#C[Se]c1ccc(NC(=O)c2ccc(Cl)cc2)cc1` [Compound 22], the 50% inhibitory concentration (IC50) turned out to be 5.4 ± 0.7 µM.

On to `COc1ccc(C(=O)Nc2ccc([Se]C#N)cc2)cc1` [Compound 23], for which the concentration for half-maximal inhibition (IC50) was 4.1 ± 0.4 µM.

Consider `N#C[Se]c1ccc(NC(=O)c2ccc(C#N)cc2)cc1` [Compound 24], for which the half-inhibitory concentration (IC50) turned out to be 9.8 ± 1.2 µM.

For `Cc1ccc(C(=O)Nc2ccc([Se]C#N)cc2)cc1` [Compound 27], the IC50 turned out to be 4.2 ± 0.3 µM.

Take `N#C[Se]c1ccc(NC(=O)c2ccno2)cc1` [Compound 30]: the IC50 stood at 24.1 ± 2.3 µM.

On to `N#C[Se]c1ccc(NC(=O)C23CC4CC(CC(C4)C2)C3)cc1` [Compound 31], for which the IC50 was 12.5 ± 1.6 µM.

As to `N#C[Se]c1ccc(NC(=O)/C=C/c2ccccc2)cc1` [Compound 32], the half-inhibitory concentration (IC50) was 4.8 ± 0.8 µM.

With `CSc1ccc(C(=O)Nc2ccc([Se]C#N)cc2)cc1` [Compound 34], the half-inhibitory concentration (IC50) is 21 ± 2.7 µM.

On to `COP(=O)(Nc1ccc([Se]C#N)cc1)OC` [Compound 36], for which the IC50 stood at 4.3 ± 0.7 µM.

Regarding `N#C[Se]c1ccc(NP(=O)(Oc2ccccc2)Oc2ccccc2)cc1` [Compound 37], the 50% inhibitory concentration (IC50) stood at 30.3 ± 3.2 µM.

Regarding `CCOP(=O)(Nc1ccc([Se]C#N)cc1)OCC` [Compound 38], the concentration for half-maximal inhibition (IC50) was above 50 µM.

Turning to `N#C[Se]c1ccc(NP(=O)(Nc2ccccc2)Oc2ccccc2)cc1` (centres unmarked) [Compound 40], the IC50 is above 50 µM.

As to `Cc1ccc(OP(=O)(Nc2ccc([Se]C#N)cc2)Oc2ccc(C)cc2)cc1` [Compound 41], the concentration for half-maximal inhibition (IC50) was found to be 43.2 ± 5.3 µM.
